From patent US20190211020A1 (Agency for Science, Technology and Research, priority 2012, published 2019) come the findings set out here.

Data set [1] in a line: Pharmacokinetics assays (plasma and brain). Format: in vivo. Particulars: for Plasma/Brain Ratio: in vivo; for AUC(0-t): read-out: Plasma AUC last; for Cmax: species, dose and route not given. Further details: AUC(0-t) / AUC(0-inf): concentration or dose not given beside the values.
The test system of the next data set is MV-4-11 (leukemia). The data set can be described thus: Cell cytotoxicity assay (CellTiter-Glo), MV-4-11. It counts as cell-based. The following applies: Homo sapiens, cell viability. Here is the method:
(§1) Cancer cell lines, MV-4-11 (leukemia), P116.c139 (acute T cell leukemia) and D1.1 (acute T cell leukemia), were purchased from ATCC and cultured according to supplier's recommendations. K562 cells (myelogenous leukemia) over-expressing eIF4E, were also used for the cytotoxicity assay. For cells treated for 48 hours, 5000 cells were seeded in 70 μl of growth medium in black, flat-bottom 96-well plate. For cells treated for six days, 1000 cells were seeded in 70 μl of growth medium in black, flat-bottom 96-well plate. […] 50 μl of the diluted compounds was added to the cells and incubated at 37° C. in 5% CO2. After 48 hours or six days treatment, cell viability was determined by CellTiter-Glo Luminescent Cell Viability Assay (Promega, Madison, Wis.). 120 μl of the reagent was added to the cells and luminescence was measured using Tecan Safire Reader. Data was analysed with Graphpad Prism software and the figures represented indicate the half maximal inhibitory concentration (IC50). Error bars denote standard deviation (SD).
(In general: ATP-based viability assays read luminescence as a measure of living cells.)

Data set [2] deals with K562 cells (myelogenous leukemia) over-expressing eIF4E. The data set can be described thus: Cell cytotoxicity assay (CellTiter-Glo), K562. Format: cell-based. The following applies: for IC50: Homo sapiens, cell viability; for change of IC50 when treatment duration was extended from 48 hours to 6 days, K562: K562 cells over-expressing eIF4E. On the procedure:
as §1

The subject of data set [3] is D1.1 (acute T cell leukemia). The data set can be described thus: Cell cytotoxicity assay (CellTiter-Glo), D1.1. It counts as cell-based. The following applies: for IC50: T-cell, cell viability. On the procedure:
as §1

The test system of data set [4] is eIF4E Ser209 phosphorylation in Hela cells. The data set can be described thus: MNK cell-based assay (AlphaScreen SureFire, eIF4E Ser209 phosphorylation). Particulars: Homo sapiens; eIF4E Ser209 phosphorylation, Hela cells, 2 hours; read-out: IC50 Hela. The essentials:
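Hela cells (30,000/well) exposed to test compound in serum-free medium for 2 h at 37 °C, then lysed. Phospho-Ser209 eIF4E quantified by AlphaScreen SureFire; IC50 obtained by non-linear regression of signal versus log compound concentration.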
Background: In Alpha technology, singlet oxygen from a donor bead excites a nearby acceptor bead.

Data set [5] has as its system P116.c139 (acute T cell leukemia). The data set is described as follows: Cell cytotoxicity assay (CellTiter-Glo), P116.c139. It counts as cell-based. Particulars: for IC50: T-cell, cell viability. On the procedure:
as §1

The mark [6] stands for this setting: brain, read-out: Brain T1/2 (converted).
Setting [7] is: plasma, read-out: Plasma T1/2 (converted).
Setting [8] is: MV4-11, 144 h, 6 days, read-out: IC50 after 6 days of treatment, MV-4-11.
The mark [9] stands for this setting: MV4-11, 48 hours, read-out: IC50 after 48 hours of treatment, MV-4-11.
The mark [10] stands for this setting: K562, 144 h, 6 days, read-out: IC50 after 6 days of treatment, K562.
Setting [11] is: K562, 48 hours, read-out: IC50 after 48 hours of treatment, K562.
Where [12] appears, read: 144 h, 6 days, read-out: IC50 after 6 days of treatment, D1.1.
[13] abbreviates: 48 hours, read-out: IC50 after 48 hours of treatment, D1.1.
Setting [14] is: 144 h, 6 days, read-out: IC50 after 6 days of treatment, P116.c139.
Setting [15] is: 48 hours, read-out: IC50 after 48 hours of treatment, P116.c139.

In general, Tmax refers to the time from dosing to the highest level. The AUC(0-inf) is total exposure, with the tail of the curve extrapolated. For orientation: Cmax means the peak of the concentration-time curve. By IC50 is commonly meant the concentration at which inhibition is half-maximal.

Like-named read-outs stand apart in the source and are kept apart here.

Take `CN(C)C1CCN(C(=O)c2ccc(-c3cn4c(-c5ccc(C#N)cc5)cnc4cn3)cc2)CC1` [Entry 2]: in data set [1] (brain), the “Brain AUC inf” value worked out at 99 ng·h/g, the “Brain AUC last” value was 71 ng·h/g and the “Brain Cmax” value amounted to 14.6 ng/g. Besides, in data set [1] (setting [6]), the half-life was 4.11 h. In addition, the Tmax in data set [1] (brain, read-out: Brain Tmax) was 0.25 h. For the same molecule, the “Plasma/Brain Ratio” value in data set [1] worked out at 0.13. Further, in data set [1] (plasma), the area under the curve AUC(0-inf) was 536 ng·h/mL, the AUC(0-t) stood at 527 ng·h/mL and the highest level (Cmax) was 227 ng/mL. Also, the half-life in data set [1] (setting [7]) is 2.06 h. For the same molecule, the Tmax in data set [1] (plasma, read-out: Plasma Tmax) is 0.25 h.

`CN1CCN(C(=O)c2ccc(-c3ccc4ncc(-c5ccc(C#N)cc5)n4c3)cc2)CC1=O` [Entry 3]: in data set [1] (brain), the “Brain AUC inf” value came to 77 ng·h/g, the “Brain AUC last” value came to 59 ng·h/g and the “Brain Cmax” value was found to be 77.78 ng/g. The half-life in data set [1] (setting [6]) was 0.96 h. The Tmax in data set [1] (brain, read-out: Brain Tmax) was determined as 0.25 h. For the same molecule, in data set [1], the “Plasma/Brain Ratio” value worked out at 0.01. Besides, in data set [1] (plasma), the AUC(0-inf) turned out to be 4190 ng·h/mL, the AUC(0-t) stood at 4120 ng·h/mL and the Cmax was 3160 ng/mL. Also, the half-life in data set [1] (setting [7]) is 2.51 h. Also, in data set [1] (plasma, read-out: Plasma Tmax), the Tmax came out at 0.25 h.

`CN1CCN(C2CCN(C(=O)c3ccc(-c4ccc5ncc(-c6ccc(C#N)cc6)n5c4)cc3)CC2)CC1` [Entry 4]: in data set [1] (brain), the “Brain AUC last” value was 184 ng·h/g and the “Brain Cmax” value came out at 20 ng/g. In addition, the Tmax in data set [1] (brain, read-out: Brain Tmax) came to 8 h. Further, the “Plasma/Brain Ratio” value in data set [1] was determined as 0.3. Besides, in data set [1] (plasma), the AUC(0-inf) worked out at 632 ng·h/mL, the AUC(0-t) is 614 ng·h/mL and the highest concentration (Cmax) worked out at 223 ng/mL. Besides, the half-life in data set [1] (setting [7]) was 2.38 h. The Tmax in data set [1] (plasma, read-out: Plasma Tmax) was found to be 0.25 h.

As to `N#Cc1ccc(-c2cnc3ccc(-c4ccc(C(=O)N5CCOCC5)cc4)nn23)cc1` [Entry 5], in data set [1] (brain), the “Brain AUC inf” value is 8951 ng·h/g, the “Brain AUC last” value worked out at 8811 ng·h/g and the “Brain Cmax” value came out at 1724 ng/g. The half-life in data set [1] (setting [6]) is 4.28 h. Moreover, in data set [1] (plasma), the total exposure AUC(0-inf) stood at 76500 ng·h/mL, the AUC(0-t) amounted to 74700 ng·h/mL and the Cmax came out at 13400 ng/mL. In addition, the half-life in data set [1] (setting [7]) was 4.33 h.

On to `N#Cc1ccc(-c2cnc3ccc(-c4ccc(C(=O)N5CCNCC5)cc4)nn23)cc1` [Entry 6], for which, in data set [1] (brain), the “Brain AUC last” value amounted to 17 ng·h/g and the “Brain Cmax” value was determined as 10 ng/g. Besides, the Tmax in data set [1] (brain, read-out: Brain Tmax) was 0.25 h. For the same molecule, the “Plasma/Brain Ratio” value in data set [1] stood at 0.05. In data set [1] (plasma), the AUC(0-inf) stood at 359 ng·h/mL, the AUC(0-t) came to 350 ng·h/mL and the Cmax worked out at 275 ng/mL. Also, in data set [1] (setting [7]), the half-life was 1.59 h. In addition, the time of peak concentration (Tmax) in data set [1] (plasma, read-out: Plasma Tmax) was 0.25 h.

Turning to `N#Cc1ccc(-c2cnc3ccc(-c4ccc(C(=O)N5CCOCC5)cc4)cn23)cc1` [Entry 7], in data set [1] (brain), the “Brain AUC inf” value stood at 2516 ng·h/g, the “Brain AUC last” value came out at 2474 ng·h/g and the “Brain Cmax” value came to 678 ng/g. Moreover, in data set [1] (setting [6]), the half-life was 2.05 h. Also, in data set [1] (brain, read-out: Brain Tmax), the Tmax was 1 h. For the same molecule, in data set [1] (plasma), the total exposure AUC(0-inf) came to 26000 ng·h/mL, the AUC(0-t) turned out to be 26000 ng·h/mL and the Cmax turned out to be 7360 ng/mL. For the same molecule, in data set [1] (setting [7]), the half-life was 2.94 h. For the same molecule, in data set [1] (plasma, read-out: Plasma Tmax), the Tmax amounted to 0.25 h.

With `N#Cc1ccc(-c2cnn3ccc(-c4ccc(C(=O)N5CCOCC5)cc4)nc23)cc1` [Entry 8], in data set [1] (brain), the “Brain AUC inf” value is 29267 ng·h/g, the “Brain AUC last” value was 29166 ng·h/g and the “Brain Cmax” value came out at 3967 ng/g. In addition, in data set [1] (setting [6]), the half-life is 2.63 h. Also, the Tmax in data set [1] (brain, read-out: Brain Tmax) amounted to 2 h. In addition, the “Plasma/Brain Ratio” value in data set [1] is listed as 0.53. In addition, in data set [1] (plasma), the AUC(0-inf) amounted to 55100 ng·h/mL, the AUC(0-t) worked out at 54800 ng·h/mL and the maximum concentration (Cmax) stood at 5970 ng/mL. For the same molecule, the half-life in data set [1] (setting [7]) was 2.78 h. In addition, in data set [1] (plasma, read-out: Plasma Tmax), the time of peak concentration (Tmax) is 0.5 h.

For `CC(=O)Nc1cc(-c2ccc3ncc(-c4ccc(C#N)cc4)n3c2)ccc1C(=O)N1CCOCC1` [Entry 9], in data set [1] (brain), the “Brain AUC inf” value came to 161 ng·h/g, the “Brain AUC last” value stood at 156 ng·h/g and the “Brain Cmax” value is 106 ng/g. In addition, in data set [1] (setting [6]), the half-life was 0.76 h. The time to peak (Tmax) in data set [1] (brain, read-out: Brain Tmax) came out at 0.5 h. Moreover, the “Plasma/Brain Ratio” value in data set [1] worked out at 0.03. In data set [1] (plasma), the AUC(0-inf) was determined as 5720 ng·h/mL, the AUC(0-t) was 5720 ng·h/mL and the concentration peaked (Cmax) at 3860 ng/mL. Also, the half-life in data set [1] (setting [7]) is 1.47 h. Besides, the Tmax in data set [1] (plasma, read-out: Plasma Tmax) came to 0.25 h.

For the molecule `N#Cc1ccc(-c2cnc3cnc(-c4ccc(C(=O)N5CCOCC5)cc4)cn23)cc1` [Entry 10], in data set [1] (brain), the “Brain AUC inf” value was 775 ng·h/g, the “Brain AUC last” value came out at 754 ng·h/g and the “Brain Cmax” value stood at 469 ng/g. In addition, the half-life in data set [1] (setting [6]) was 0.69 h. The time to peak (Tmax) in data set [1] (brain, read-out: Brain Tmax) stood at 1 h. In data set [1], the “Plasma/Brain Ratio” value was 0.06. Besides, in data set [1] (plasma), the AUC(0-inf) worked out at 12800 ng·h/mL, the AUC(0-t) stood at 12700 ng·h/mL and the peak concentration (Cmax) amounted to 6400 ng/mL. Moreover, the half-life in data set [1] (setting [7]) is 1.11 h. In addition, the Tmax in data set [1] (plasma, read-out: Plasma Tmax) came out at 0.5 h.

On to `CN1CCN(C2CCN(C(=O)c3ccc(-c4ccc5ncc(-c6ccc(C#N)cc6)n5c4)cc3)CC2)CC1` [Example 133, 4-(6-(4-(4-(4-methylpiperazin-1-yl)piperidine-1-carbonyl)phenyl)imidazo[1,2-a]pyridin-3-yl)benzonitrile], for which the 50% inhibitory concentration (IC50) in the data set on MV-4-11 (leukemia) (setting [8]) came out at 1.5 µM; in the data set on MV-4-11 (leukemia) (setting [9]), 2.8 µM; in data set [2] (setting [10]) it was 16 µM; in data set [2] (setting [11]), 23 µM; in data set [3] (setting [12]), 11.2 µM; in data set [3] (setting [13]), 15.8 µM. Also, the half-maximal inhibitory concentration (IC50) in data set [4] is less than 1 µM; in data set [5] (setting [14]), 4 µM; in data set [5] (setting [15]), 10.9 µM. Also, the “change of IC50 when treatment duration was extended from 48 hours to 6 days, K562” value in data set [2] was “not influenced by the treatment duration”. Moreover, the “change of IC50 when treatment duration was extended from 48 hours to 6 days, D1.1” value in data set [3] is reported as “not influenced by the treatment duration”. Also, in data set [5], the “change of IC50 when treatment duration was extended from 48 hours to 6 days, P116.c139” value is “decrease the IC50 by more than half-fold”.

For `CN1CCN(C(=O)c2ccc(-c3ccc4ncc(-c5ccc(O)cc5)n4c3)cc2)CC1` [Example 175, (4-(3-(4-hydroxyphenyl)imidazo[1,2-a]pyridin-6-yl)phenyl)(4-methylpiperazin-1-yl)methanone], the IC50 with MV-4-11 (leukemia) (setting [8]) amounted to 0.3 µM; in the data set with MV-4-11 (leukemia) (setting [9]) it was 0.9 µM; in data set [2] (setting [10]), 21.2 µM; in data set [2] (setting [11]), 18.2 µM; in data set [3] (setting [12]) it was 10.1 µM; in data set [3] (setting [13]), 12.3 µM. The half-maximal inhibitory concentration (IC50) in data set [5] (setting [14]) was determined as 5.7 µM; in data set [5] (setting [15]), 12.5 µM. Besides, the “change of IC50 when treatment duration was extended from 48 hours to 6 days, K562” value in data set [2] is reported as “not influenced by the treatment duration”. The “change of IC50 when treatment duration was extended from 48 hours to 6 days, D1.1” value in data set [3] is given as “not influenced by the treatment duration”. The “change of IC50 when treatment duration was extended from 48 hours to 6 days, P116.c139” value in data set [5] was “decrease the IC50 by more than half-fold”.
